This is an account of results in ChEMBL document CHEMBL6134841, “3,5-Dihydroxybenzoic Acid as a Potent Inhibitor of Tyrosine Phenol-Lyase Decreases Fecal Phenol Levels in Mice” (J Med Chem, 2025).

Calls of active or inactive are those of the source. No cut-off for these calls is given here.

Test [1] is described as follows: Competitive inhibition of bacterial TPL assessed as decrease in phenol production incubated for 3 mins in presence of PLP/L-Tyr by LC-MS analysis. The arrangement: species or system Bacteria.
The subject of test [2] is Morganella morganii. The test can be described thus: Inhibition of recombinant Morganella morganii JCM1672 TPL extracted from Escherichia coli BL21(DE3) assessed as decrease in phenol production incubated for 3 mins in presence of PLP/L-Tyr by LC-MS analysis.
In test [3] the test system is Citrobacter koseri. The test can be described thus: Inhibition of recombinant Citrobacter koseri JCM1658 TPL extracted from Escherichia coli BL21(DE3) assessed as decrease in phenol production incubated for 3 mins in presence of PLP/L-Tyr by LC-MS analysis.
The subject of test [4] is Mus musculus. Put plainly: In vivo inhibition of TPL in C57BL/6J mouse assessed as reduction in L-Tyr-induced fecal phenol level administered orally measured after 14 days by LC-MS analysis. Type of test: functional, organism-based. The note with it: route po, time 14.0 day.
The test system of test [5] is Morganella morganii. The test can be described thus: Inhibition of TPL in Morganella morganii JCM1672 assessed as decrease in phenol production at 100 to 500 uM incubated for 3 hrs by absorbance based analysis relative to control. As to conditions: dose 100-500 µM.
Test [6] has as its system Mus musculus. The test can be described thus: Effect on fecal phenol level in C57BL/6J mouse administered orally measured after 7 days by LC-MS analysis. As to conditions: route po, time 7.0 day. In kind it is functional, organism-based.
Test [7] concerns Morganella morganii. The test can be described thus: Inhibition of cell growth in Morganella morganii JCM1672 up to 500 uM incubated up to 24 hrs. In kind it is functional, organism-based.
The subject of test [8] is Morganella morganii. Put plainly: Inhibition of TPL in Morganella morganii JCM1672 assessed as decrease in phenol production at 100 uM incubated for 1 hr by absorbance based analysis.
In test [9] the test system is Citrobacter koseri. The test can be described thus: Inhibition of TPL in Citrobacter koseri JCM1658 assessed as decrease in phenol production at 100 to 500 uM incubated for 3 hrs by absorbance based analysis relative to control. The note with it: dose 100-500 µM.
Test [10] deals with Morganella morganii. Put plainly: Inhibition of TPL in Morganella morganii JCM1672 assessed as decrease in phenol production at 500 uM incubated for 0.5 to 3 hrs by absorbance based analysis. As to conditions: time 0.5-3 hrs.
Test [11] has as its system Morganella morganii. Put plainly: Effect on TPL expression in Morganella morganii JCM1672 up to 500 uM by immunoblot analysis. Type of test: functional. (In general: In western blotting, separated proteins are transferred to a membrane and probed.)
Test [12] deals with Citrobacter koseri. Put plainly: Inhibition of cell growth in Citrobacter koseri JCM1658 up to 500 uM incubated up to 24 hrs. Type of test: functional, organism-based.
The test system of test [13] is Mus musculus. The test can be described thus: In vivo inhibition of TPL in feces of C57BL/6J mouse administered orally measured after 14 days by immunoassay. The note with it: route po, time 14.0 day. Type of test: functional, organism-based.
Test [14] concerns Citrobacter koseri. The test can be described thus: Inhibition of TPL in Citrobacter koseri JCM1658 assessed as decrease in phenol production incubated for 0.5 to 3 hrs by absorbance based analysis. As to conditions: dose 100-500 µM, time 0.5-3 hrs.
The test system of test [15] is Citrobacter koseri. Put plainly: Effect on TPL expression in Citrobacter koseri JCM1658 up to 500 uM by immunoblot analysis. In kind it is functional.

For the compound `N[C@@H](Cc1ccc(O)cn1)C(=O)O`, the Ki in [1] was determined as 130 µM.
As to `COc1cc(C(=O)O)ccc1O`, the inhibition entry in test [2] was “inactive”.
As for `COc1ccc(C(=O)O)cc1OC`, in [2], the inhibition result is “inactive”.
Regarding `O=C(O)Cc1ccc(O)c(O)c1`, in test [2], the inhibition result was “inactive”.
`O=C(O)c1ccc(O)cc1`: in test [2], the inhibition entry was “inactive”.
In the case of `O=C(O)c1ccc(O)nc1`, the inhibition entry in [2] is “inactive”.
`O=C(O)c1ccccc1`: the inhibition result in [2] is “inactive”.
For the compound `O=C(O)c1cccnc1`, in [2], the inhibition entry is “inactive”.
With `O=C(O)c1cncc(O)c1`, in [2], the inhibition result is “Active”.
Consider `O=C(O[C@@H]1Cc2c(O)cc(O)cc2O[C@@H]1c1cc(O)c(O)c(O)c1)c1cc(O)c(O)c(O)c1`, for which the inhibition result in test [3] and in [2] was “Active” in each case.
Take `O=C(O[C@@H]1Cc2c(O)cc(O)cc2O[C@@H]1c1ccc(O)c(O)c1)c1cc(O)c(O)c(O)c1`: the inhibition entry in [3] and in test [2] was “Active” in each case.
For `Oc1cccc(O)c1`, the inhibition result in test [2] is “inactive”.
For `Oc1cccc(O)c1O`, the inhibition entry in [2] is “inactive”.
For `Oc1ccccc1O`, the inhibition entry in test [2] was “inactive”.
`O=C(O)c1cc(O)cc(O)c1` [3,5-DIHYDROXYBENZOIC ACID]: the inhibition entry in test [4], in test [8], in test [10] and in test [2] was “Active” each time. For the same compound, the figures for the Imax in [5] and in test [9] were 29.3% and 56.2%, respectively. For the same compound, the Activity entry in test [6], in test [11] and in [15] was “No effect” throughout. Further, the inhibition entry in test [7] and in test [12] was “inactive” throughout. The inhibition entry in [13] is “Active; Tpl Expression Was Below The Detection Limit”; in test [14], “Dose-dependent-effect”. Besides, in test [1], the inhibition constant (Ki) came out at 25.7 µM.
As for `O=C(O)c1cccc(O)c1` [3-HYDROXYBENZOIC ACID], in test [1], the Ki came out at 35.8 µM. Also, the inhibition result in test [2] is “Active”.
Take `O=C(O)c1cc(O)c(O)c(O)c1` [GALLIC ACID]: the inhibition result in test [3] and in test [2] was “Active” each time. Also, the Ki in test [1] was determined as 73.2 µM.
Regarding `COc1ccc(C(=O)O)cc1O` [ISOVANILLIC ACID], in [1], the Ki amounted to 44.7 µM. Further, the inhibition result in [2] was “Active”.
Turning to `O=C(O)c1ccc(O)c(O)c1` [PROTOCATECHUIC ACID], the Ki in test [1] was found to be 45.5 µM. Further, in [2], the inhibition entry is “Active”.

As a reminder, the Ki is a dissociation constant, usually derived from enzyme kinetics or from competition with a known ligand.
